tested on: MDA-MB-231 (breast) cancer cell line; assay: MTT cell viability assay, MDA-MB-231; assay type: cell-based, human; conditions: Homo sapiens, MDA-MB-231, 48 h, read-out: Cell growth %, MDA-MB-231, 10 µM, 48 h, MTT
Experimental: (§1) Cell lines were purchased from the American Type Culture Collection (ATCC). Cell lines MDA-MB-231, HTB-54, DU-145, and BEAS-2B were cultured in RPMI 1640 medium (Gibco, Thermo Fisher Scientific, Gaithersburg, MD, USA) supplemented with 10% fetal bovine serum (FBS; Gibco), 100 units/mL penicillin, and […] streptomycin (Gibco). HT-29 cell line was grown in McCoy’s 5A (Gibco), 10% FBS, 100 units/mL penicillin, and 100 μg/mL streptomycin. Cells were maintained at 37 °C and 5% CO2. The culture medium was changed every three days.
(§2) The cell viability of each compound was measured by MTT colorimetric assay. Each compound was dissolved in DMSO at a concentration of 0.01 M. Each compound was tested at two different concentrations (10 and 50 µM) in MDA-MB-231 (breast), HTB-54 (lung), DU-145 (prostate), and HT-29 (colon) human cancer cell lines. Serial dilutions were prepared with supplemented culture medium. […] IC50 and selectivity indexes (SI) were determined.
(§3) Briefly, 1 × 10^4 tumor cells per well were grown in 96-well plates for 24 h. Then, these cells were incubated for 48 h with either DMSO (control) or a different concentration of each of the tested compounds. The cell viability was determined by adding 20 μL of MTT two hours and a half before the termination point. After this time, the culture medium was removed. The resulting formazan crystals were dissolved in 50 μL of DMSO, and the absorbance was measured at 570 nm. Results are expressed as % cell growth. The data were obtained from at least three independent experiments performed in quadruplicate.

SMILES | activity at 10 µM
C#CCNC(=[Se])NC(=O)c1ccco1 [Compound 1.III, N-(prop-2-in-1-ylcarbamoselenoyl)furan-2-carboxamide] | 66.3 ± 16.7%
C=CCNC(=[Se])NC(=O)c1ccc2c(c1)OCO2 [Compound 8.II, N-(allylcarbamoselenoyl)benzo[d][1,3]dioxole-5-carboxamide] | 80.7 ± 6.4%

same assay, conditions: Homo sapiens, MDA-MB-231, 48 h, read-out: Cell growth %, MDA-MB-231, 50 µM, 48 h, MTT

SMILES | activity at 50 µM
C#CCNC(=[Se])NC(=O)c1ccco1 [Compound 1.III, N-(prop-2-in-1-ylcarbamoselenoyl)furan-2-carboxamide] | 17.6 ± 9.3%
C=CCNC(=[Se])NC(=O)c1ccc2c(c1)OCO2 [Compound 8.II, N-(allylcarbamoselenoyl)benzo[d][1,3]dioxole-5-carboxamide] | 15.5 ± 7.6%

tested on: DU-145 (prostate) cancer cell line; assay: MTT cell viability assay, DU-145; assay type: cell-based, human; conditions: Homo sapiens, DU-145, 48 h, read-out: Cell growth %, DU-145, 10 µM, 48 h, MTT
Experimental: as §1, §2, §3

SMILES | activity at 10 µM
C#CCNC(=[Se])NC(=O)c1ccco1 [Compound 1.III, N-(prop-2-in-1-ylcarbamoselenoyl)furan-2-carboxamide] | 42.4 ± 4.8%
C=CCNC(=[Se])NC(=O)c1ccc2c(c1)OCO2 [Compound 8.II, N-(allylcarbamoselenoyl)benzo[d][1,3]dioxole-5-carboxamide] | 88.6 ± 10.1%

same assay, conditions: Homo sapiens, DU-145, 48 h, read-out: Cell growth %, DU-145, 50 µM, 48 h, MTT

SMILES | activity at 50 µM
C#CCNC(=[Se])NC(=O)c1ccco1 [Compound 1.III, N-(prop-2-in-1-ylcarbamoselenoyl)furan-2-carboxamide] | 15.2 ± 1.2%
C=CCNC(=[Se])NC(=O)c1ccc2c(c1)OCO2 [Compound 8.II, N-(allylcarbamoselenoyl)benzo[d][1,3]dioxole-5-carboxamide] | 10.3 ± 4.2%

tested on: not given; assay: not given; parameters: method as in PMID 36671001; conditions: selenoester analogs, 0.03 mg/mL, 90 min; cited from earlier work

SMILES | DPPH Inhibitory%
C#CC[Se]C(=O)c1ccc2c(c1)OCO2 [C00003 5-benzo[d][1, 3]dioxyl] | 4.2 ± 8.0%
C=CC[Se]C(=O)c1ccco1 [C00001 2-furyl] | 4.6 ± 7.5%
C#CC[Se]C(=O)c1ccccc1 [C00003 phenyl] | 3.5 ± 0.9%

tested on: HTB-54 (lung) cancer cell line; assay: MTT cell viability assay, HTB-54; assay type: cell-based, human; conditions: Homo sapiens, HTB-54, 48 h, read-out: Cell growth %, HTB-54, 10 µM, 48 h, MTT
Experimental: as §1, §2, §3

SMILES | activity at 10 µM
C#CCNC(=[Se])NC(=O)c1ccco1 [Compound 1.III, N-(prop-2-in-1-ylcarbamoselenoyl)furan-2-carboxamide] | 76 ± 4.8%
C=CCNC(=[Se])NC(=O)c1ccc2c(c1)OCO2 [Compound 8.II, N-(allylcarbamoselenoyl)benzo[d][1,3]dioxole-5-carboxamide] | 51.9 ± 15%

same assay, conditions: Homo sapiens, HTB-54, 48 h, read-out: Cell growth %, HTB-54, 50 µM, 48 h, MTT

SMILES | activity at 50 µM
C#CCNC(=[Se])NC(=O)c1ccco1 [Compound 1.III, N-(prop-2-in-1-ylcarbamoselenoyl)furan-2-carboxamide] | 48 ± 4.2%
C=CCNC(=[Se])NC(=O)c1ccc2c(c1)OCO2 [Compound 8.II, N-(allylcarbamoselenoyl)benzo[d][1,3]dioxole-5-carboxamide] | 20 ± 6.6%

tested on: not listed separately; assay: DPPH radical scavenging assay; assay type: biochemical; conditions: 0.003 mg/mL, 0 min
Experimental: Different methods are available to quantify the antioxidant capacity of natural or novel molecules. Notable among these are the ABTS^•+ and DPPH^• methods, which measure the quenching efficiency in vitro for known concentrations of preformed radicals. In this work, the DPPH^• colorimetric assay was carried out. Measurements were recorded on a BioTeck PowerWave XS spectrophotometer (BioTeck Instruments, Winooski, VT, USA) and data were collected using KCJunior v.1.41. software (BioTeck Instruments, Winooski, VT, USA). Compounds with potent activity were selected to further determine their protective effect against ROS-induced cell death caused by H2O2.
DPPH colorimetric assay was performed to determine the in vitro radical scavenging activity of the acylselenourea derivatives. DPPH assay was performed as described by Svinyarov. For each acylselenourea, a stock solution of 1 mg/mL in dimethyl sulfoxide (DMSO) was made, and these solutions were used to prepare the different concentrations employed in the assay. The compounds were tested at two different concentrations (0.003 and 0.03 mg/mL). Intermediate solutions were prepared in methanol and a volume of 100 µL of each was added to each well of the plate. Then, 100 µL of DPPH^• (previously prepared at a concentration of 0.04 mg/mL in methanol and preserved in the dark) was added to the previous methanolic acylselenourea solutions. The discoloration of the purple radical to the yellow reduced form was followed at 517 nm at different time points (0, 5, 15, 30, 60, 90, and 120 min). Ascorbic acid and trolox were used as positive controls. All measurements were carried out in triplicate. Results are expressed as the percentage of the radicals scavenged, calculated using the following formula: (1) % DPPH radical scavenging=Acontrol - Asample/Acontrol × 100 where Acontrol refers to the absorbance of the negative control and Asample refers to the absorbance of the tested compounds. Results are expressed as percentage of DPPH radical scavenging ± SD.

SMILES | inhibition
C#CCNC(=[Se])NC(=O)c1ccco1 [Compound 1.III, N-(prop-2-in-1-ylcarbamoselenoyl)furan-2-carboxamide] | 1.5 ± 0.7%
C=CCNC(=[Se])NC(=O)c1ccc2c(c1)OCO2 [Compound 8.II, N-(allylcarbamoselenoyl)benzo[d][1,3]dioxole-5-carboxamide] | 1.2 ± 1.4%

same assay, conditions: 0.003 mg/mL, 5 min

SMILES | inhibition
C#CCNC(=[Se])NC(=O)c1ccco1 [Compound 1.III, N-(prop-2-in-1-ylcarbamoselenoyl)furan-2-carboxamide] | 3.4 ± 0.6%
C=CCNC(=[Se])NC(=O)c1ccc2c(c1)OCO2 [Compound 8.II, N-(allylcarbamoselenoyl)benzo[d][1,3]dioxole-5-carboxamide] | 2.8 ± 1.3%

same assay, conditions: 0.003 mg/mL, 15 min

SMILES | inhibition
C#CCNC(=[Se])NC(=O)c1ccco1 [Compound 1.III, N-(prop-2-in-1-ylcarbamoselenoyl)furan-2-carboxamide] | 4.9 ± 0.7%
C=CCNC(=[Se])NC(=O)c1ccc2c(c1)OCO2 [Compound 8.II, N-(allylcarbamoselenoyl)benzo[d][1,3]dioxole-5-carboxamide] | 5 ± 1.2%

same assay, conditions: 0.003 mg/mL, 30 min

SMILES | inhibition
C#CCNC(=[Se])NC(=O)c1ccco1 [Compound 1.III, N-(prop-2-in-1-ylcarbamoselenoyl)furan-2-carboxamide] | 6.5 ± 0.7%
C=CCNC(=[Se])NC(=O)c1ccc2c(c1)OCO2 [Compound 8.II, N-(allylcarbamoselenoyl)benzo[d][1,3]dioxole-5-carboxamide] | 7.1 ± 1.1%

same assay, conditions: 0.003 mg/mL, 60 min

SMILES | inhibition
C#CCNC(=[Se])NC(=O)c1ccco1 [Compound 1.III, N-(prop-2-in-1-ylcarbamoselenoyl)furan-2-carboxamide] | 8.5 ± 1%
C=CCNC(=[Se])NC(=O)c1ccc2c(c1)OCO2 [Compound 8.II, N-(allylcarbamoselenoyl)benzo[d][1,3]dioxole-5-carboxamide] | 9.7 ± 1.1%

same assay, conditions: 0.003 mg/mL, 90 min

SMILES | inhibition
C#CCNC(=[Se])NC(=O)c1ccco1 [Compound 1.III, N-(prop-2-in-1-ylcarbamoselenoyl)furan-2-carboxamide] | 9.6 ± 0.9%
C=CCNC(=[Se])NC(=O)c1ccc2c(c1)OCO2 [Compound 8.II, N-(allylcarbamoselenoyl)benzo[d][1,3]dioxole-5-carboxamide] | 10.9 ± 1.2%

same assay, conditions: 0.003 mg/mL, 120 min

SMILES | inhibition
C#CCNC(=[Se])NC(=O)c1ccco1 [Compound 1.III, N-(prop-2-in-1-ylcarbamoselenoyl)furan-2-carboxamide] | 10 ± 0.8%
C=CCNC(=[Se])NC(=O)c1ccc2c(c1)OCO2 [Compound 8.II, N-(allylcarbamoselenoyl)benzo[d][1,3]dioxole-5-carboxamide] | 11.7 ± 1.2%

same assay, conditions: 0.03 mg/mL, 0 min

SMILES | inhibition
C#CCNC(=[Se])NC(=O)c1ccco1 [Compound 1.III, N-(prop-2-in-1-ylcarbamoselenoyl)furan-2-carboxamide] | 11.8 ± 1.7%
C=CCNC(=[Se])NC(=O)c1ccc2c(c1)OCO2 [Compound 8.II, N-(allylcarbamoselenoyl)benzo[d][1,3]dioxole-5-carboxamide] | 17.6 ± 4.6%

same assay, conditions: 0.03 mg/mL, 5 min

SMILES | inhibition
C#CCNC(=[Se])NC(=O)c1ccco1 [Compound 1.III, N-(prop-2-in-1-ylcarbamoselenoyl)furan-2-carboxamide] | 15.2 ± 4.4%
C=CCNC(=[Se])NC(=O)c1ccc2c(c1)OCO2 [Compound 8.II, N-(allylcarbamoselenoyl)benzo[d][1,3]dioxole-5-carboxamide] | 39 ± 3%

same assay, conditions: 0.03 mg/mL, 15 min

SMILES | inhibition
C#CCNC(=[Se])NC(=O)c1ccco1 [Compound 1.III, N-(prop-2-in-1-ylcarbamoselenoyl)furan-2-carboxamide] | 23.5 ± 3.9%
C=CCNC(=[Se])NC(=O)c1ccc2c(c1)OCO2 [Compound 8.II, N-(allylcarbamoselenoyl)benzo[d][1,3]dioxole-5-carboxamide] | 55.5 ± 2.1%

same assay, conditions: 0.03 mg/mL, 30 min

SMILES | inhibition
C#CCNC(=[Se])NC(=O)c1ccco1 [Compound 1.III, N-(prop-2-in-1-ylcarbamoselenoyl)furan-2-carboxamide] | 31.2 ± 3.7%
C=CCNC(=[Se])NC(=O)c1ccc2c(c1)OCO2 [Compound 8.II, N-(allylcarbamoselenoyl)benzo[d][1,3]dioxole-5-carboxamide] | 68 ± 1.7%

same assay, conditions: 0.03 mg/mL, 60 min

SMILES | inhibition
C#CCNC(=[Se])NC(=O)c1ccco1 [Compound 1.III, N-(prop-2-in-1-ylcarbamoselenoyl)furan-2-carboxamide] | 40.9 ± 4.3%
C=CCNC(=[Se])NC(=O)c1ccc2c(c1)OCO2 [Compound 8.II, N-(allylcarbamoselenoyl)benzo[d][1,3]dioxole-5-carboxamide] | 81.4 ± 1.3%

same assay, conditions: 0.03 mg/mL, 120 min

SMILES | inhibition
C#CCNC(=[Se])NC(=O)c1ccco1 [Compound 1.III, N-(prop-2-in-1-ylcarbamoselenoyl)furan-2-carboxamide] | 48.1 ± 0.4%
C=CCNC(=[Se])NC(=O)c1ccc2c(c1)OCO2 [Compound 8.II, N-(allylcarbamoselenoyl)benzo[d][1,3]dioxole-5-carboxamide] | 93.7 ± 1.4%

same assay, conditions: acylselenourea analogs, 0.03 mg/mL, 90 min

SMILES | DPPH Inhibitory%
C#CCNC(=[Se])NC(=O)c1ccco1 [Compound 1.III, N-(prop-2-in-1-ylcarbamoselenoyl)furan-2-carboxamide] | 42.6 ± 0.6%
C=CCNC(=[Se])NC(=O)c1ccc2c(c1)OCO2 [Compound 8.II, N-(allylcarbamoselenoyl)benzo[d][1,3]dioxole-5-carboxamide] | 88.2 ± 1.3%

tested on: HT-29 (colon) cancer cell line; assay: MTT cell viability assay, HT-29; assay type: cell-based; conditions: Homo sapiens, HT-29, 48 h, HT-29, 10 µM, read-out: Cell growth %
Experimental: as §1, §2, §3

SMILES | activity at 10 µM
C#CCNC(=[Se])NC(=O)c1ccco1 [Compound 1.III, N-(prop-2-in-1-ylcarbamoselenoyl)furan-2-carboxamide] | 84 ± 16.8%
C=CCNC(=[Se])NC(=O)c1ccc2c(c1)OCO2 [Compound 8.II, N-(allylcarbamoselenoyl)benzo[d][1,3]dioxole-5-carboxamide] | 83.5 ± 16.4%

same assay, conditions: Homo sapiens, HT-29, 48 h, HT-29, 50 µM, read-out: Cell growth %

SMILES | activity at 50 µM
C#CCNC(=[Se])NC(=O)c1ccco1 [Compound 1.III, N-(prop-2-in-1-ylcarbamoselenoyl)furan-2-carboxamide] | 17.2 ± 4.2%
C=CCNC(=[Se])NC(=O)c1ccc2c(c1)OCO2 [Compound 8.II, N-(allylcarbamoselenoyl)benzo[d][1,3]dioxole-5-carboxamide] | 26.6 ± 3.8%

From PMC10376326, “Novel Acylselenourea Derivatives: Dual Molecules with Anticancer and Radical Scavenging Activity” (Antioxidants, 2023)
